We go through four compounds from the NIST ThermoML archive (doi:10.1021/acs.jced.7b00452).

± gives the expanded uncertainty stated by the source.

A short description of data set [1]: mn = molality of the nth substance listed, in mol/kg. As to conditions: 101.3 kPa, Liquid; for speed of sound: Single path-length method; for mass density: Vibrating tube method.
For data set [2] the following is noted: 318.15 K; 101.3 kPa; Liquid; Single path-length method.

The speed of sound is how fast a sound wave travels through the sample. The term mass density denotes the mass of a sample divided by its volume.

In the case of `CC(C)[C@H](N)C(=O)O` [L-valine] + O, the speed of sound in data set [1] (298.15 K, m1 = 0.025) stood at 1498.9 ± 1 m/s; in data set [1] (298.15 K, m1 = 0.05), 1501.7 ± 1 m/s; in data set [1] (308.15 K, m1 = 0.025) it was 1521.7 ± 1 m/s; in data set [1] (308.15 K, m1 = 0.05), 1524.2 ± 1 m/s; in data set [1] (318.15 K, m1 = 0.025) it was 1537.7 ± 1 m/s; in data set [1] (318.15 K, m1 = 0.05) it was 1540.2 ± 1 m/s. For the same compound, the mass density in data set [1] (298.15 K, m1 = 0.025) was 997.706 ± 0.1 kg/m3; in data set [1] (298.15 K, m1 = 0.05), 998.248 ± 0.1 kg/m3; in data set [1] (308.15 K, m1 = 0.025), 994.661 ± 0.1 kg/m3; in data set [1] (308.15 K, m1 = 0.05) it was 995 ± 0.1 kg/m3; in data set [1] (318.15 K, m1 = 0.025), 990.798 ± 0.1 kg/m3; in data set [1] (318.15 K, m1 = 0.05), 991.103 ± 0.1 kg/m3.

For `C[C@H](N)C(=O)O` [(S)-2-aminopropanoic acid] + O, the speed of sound in data set [1] (298.15 K, m1 = 0.025) came out at 1498.8 ± 1 m/s; in data set [1] (298.15 K, m1 = 0.05), 1500 ± 1 m/s; in data set [1] (308.15 K, m1 = 0.025), 1521.6 ± 1 m/s; in data set [1] (308.15 K, m1 = 0.05) it was 1522.7 ± 1 m/s; in data set [1] (318.15 K, m1 = 0.025), 1538 ± 1 m/s; in data set [1] (318.15 K, m1 = 0.05), 1539.2 ± 1 m/s. Also, the mass density in data set [1] (298.15 K, m1 = 0.025) is 997.765 ± 0.1 kg/m3; in data set [1] (298.15 K, m1 = 0.05) it was 998.484 ± 0.1 kg/m3; in data set [1] (308.15 K, m1 = 0.025), 994.741 ± 0.1 kg/m3; in data set [1] (308.15 K, m1 = 0.05), 995.466 ± 0.1 kg/m3; in data set [1] (318.15 K, m1 = 0.025) it was 990.91 ± 0.11 kg/m3; in data set [1] (318.15 K, m1 = 0.05), 991.637 ± 0.11 kg/m3.

With `O` [water], the speed of sound in data set [2] came out at 1536.7 ± 1 m/s.

Regarding `O` [water] + CCN(CC)CCNC(=O)c1ccc(N)cc1.Cl, the speed of sound in data set [1] (318.15 K, m2 = 0) is recorded as 1536.7 ± 1 m/s.
